Key:
[1] = target: sGC α1/β1 heterodimer (Homo sapiens (Human), UniProt Q02108+Q02153); test: Cell-based sGC functional assay (cyclic GMP assay for sGC activator: CASA assay); parameters: % Activation: concentration or dose not given beside the values; details: CHO-K1/sGC cells; for Emax: CHO-K1, activity expressed as percentage of compound A (standard), read-out: % Activation; for EC50: inflection point, 4P fit, read-out: IP
Method in brief: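 CHO-K1 cells stably expressing human sGC α1/β1 were pre-incubated 30 min at 25° C with or without 1 μM DETA-NO, then exposed to compound for 1 hr at 37° C with 0.5 mM IBMX and 2.5% DMSO final. Intracellular cGMP was measured by HTRF, expressed as % of reference sGC-HDA maximum; inflection point and maximum fold induction came from 4-parameter fits.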

[2] = target: human recombinant sGC enzyme (Homo sapiens (Human), UniProt Q02108+Q02153); test: Size Exclusion Chromatography (SEC) competition binding assay using [3H] Ex-77B as the radioligand; details: [3H] Ex-77B radioligand, 24 hours at 37° C.
Method in brief: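 Recombinant human sGC binding measured by competition against tritiated Ex-77B radioligand, with non-specific binding defined by 1 μM unlabeled Ex-77B.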

Row | SMILES | Emax [1] | EC50 [1] | Ki [2] | % Activation ([1]; activity expressed as percentage of compound A (standard))
1 | CC(C)(Cc1csc([C@]2(C)C(=O)Nc3nc(-c4nn(Cc5cccc(F)c5F)c5cc(Cl)ccc45)nc(N)c32)n1)C(=O)O [Example 181A, (S)-3-(2-{4-amino-2-[6-chloro-1-(2,3-difluorobenzyl)-1H-indazol-3-yl]-5-methyl-6-oxo-6,7-dihydro-5H-pyrrolo[2,3-d]pyrimidin-5-yl}-1,3-thiazol-4-yl)-2,2-dimethyl-propanoic acid] | 112% | 278 nM | 0.094 nM | 
2 | CC(C)(CCc1coc(C2(C)C(=O)Nc3nc(-c4nn(Cc5ccccc5F)c5cc(Cl)ccc45)nc(N)c32)n1)C(=O)O (centres unmarked) [Example 167B, 4-(2-{4-amino-2-[6-chloro-1-(2-fluorobenzyl)-1H-indazol-3-yl]-5-methyl-6-oxo-6,7-dihydro-5H-pyrrolo[2,3-d]pyrimidin-5-yl}-1,3-oxazol-4-yl)-2,2-dimethyl-butanoic acid] | 107% | 93 nM | 0.07 nM | 
3 | C[C@@]1(c2ccc(CCC(=O)O)cc2)C(=O)Nc2nc(-c3nn(CCCC(F)(F)F)c4ncccc34)nc(N)c21 [Example 15B, (S)-3-(4-{4-amino-5-methyl-6-oxo-2-[1-(4,4,4-trifluorobutyl)-1H-pyrazolo[3,4-b]pyridin-3-yl]-6,7-dihydro-5H-pyrrolo[2,3-d]pyrimidin-5-yl}phenyl)propanoic acid] | 95% | 1320 nM | 0.455 nM | 
4 | CC(C)(CCc1coc(C2(C)C(=O)Nc3nc(-c4nn(Cc5ccccc5F)c5ncccc45)nc(N)c32)n1)C(=O)O (centres unmarked) [Example 206B, 4-(2-{4-amino-2-[1-(2-fluorobenzyl)-1H-pyrazolo[3,4-b]pyridin-3-yl]-5-methyl-6-oxo-6,7-dihydro-5H-pyrrolo[2,3-d]pyrimidin-5-yl}-1,3-oxazol-4-yl)-2,2-dimethyl-butanoic acid] | 113% | 549 nM | 0.798 nM | 
5 | C[C@@]1(c2ccc(CCc3nn[nH]n3)cc2)C(=O)Nc2nc(-c3nn(CCC(F)(F)C(F)(F)F)c4cc(Cl)ccc34)nc(N)c21 (single isomer, unassigned) [Example 237B] | 93.3% | 5870 nM | 0.193 nM | 
6 | CC1(c2ccnc(C(=O)O)c2)C(=O)Nc2nc(-c3nn(Cc4ccccc4F)c4cc(Cl)ccc34)nc(N)c21 (centres unmarked) [Example 143B, 4-{4-amino-2-[6-chloro-1-(2-fluoro-benzyl)-1H-indazol-3-yl]-5-methyl-6-oxo-6,7-dihydro-5H-pyrrolo[2,3-d]pyrimidin-5-yl} pyridine-2-carboxylic acid] | 76.1% | 3380 nM | 0.174 nM | 
7 | CC1(c2nc(-c3ccc(C(=O)O)cc3)co2)C(=O)Nc2nc(-c3nn(Cc4ccccc4F)c4ncccc34)nc(N)c21 (centres unmarked) [Example 146A, 4-(2-{4-amino-2-[1-(2-fluorobenzyl)-1H-pyrazolo[3,4-b]pyridin-3-yl]-5-methyl-6-oxo-6,7-dihydro-5H-pyrrolo [2,3-d]pyrimidin-5-yl}-1,3-oxazol-4-yl)benzoic acid] | 82.1% | 94 nM | 0.062 nM | 
8 | CC1(c2cccc(C(=O)O)n2)C(=O)Nc2nc(-c3nn(Cc4ccccc4F)c4cc(Cl)ccc34)nc(N)c21 (centres unmarked) [Example 255A, 6-{4-Amino-2-[6-chloro-1-(2-fluorobenzyl)-1H-indazol-3-yl]-5-methyl-6-oxo-6,7-dihydro-5H-pyrrolo[2,3-d]pyrimidin-5-yl}picolinic acid] | 108% | 1480 nM | 0.073 nM | 
9 | CC(C)(Cc1csc([C@]2(C)C(=O)Nc3nc(-c4nn(CC5CCCC5)c5cc(Cl)ccc45)nc(N)c32)n1)C(=O)O [Example 162A, (S)-3-(2-{4-amino-2-[6-chloro-1-(cyclopentyl-methyl)-1H-indazol-3-yl]-5-methyl-6-oxo-6,7-dihydro-5H-pyrrolo[2,3-d]pyrimidin-5-yl}-1,3-thiazol-4-yl)-2,2-dimethyl-propanoic acid] | 76.5% | 69 nM | 0.15 nM | 
10 | CC1CCC(Cn2nc(-c3nc(N)c4c(n3)NC(=O)C4(C)c3nc(CC(C)(C)C(=O)O)co3)c3cccnc32)CC1 (single isomer, unassigned) [Example 126AA, 3-{2-[4-amino-5-methyl-2-{1-[4-methylcyclohexylmethyl]-1H-pyrazolo[3,4-b]pyridin-3-yl}-6-oxo-6,7-dihydro-5H-pyrrolo[2,3-d]pyrimidin-5-yl]-1,3-oxazol-4-yl}-2,2-dimethylpropanoic acid] |  | 74 nM | 0.1 nM | 89.0%
11 | Cc1oc(C2(C)C(=O)Nc3nc(-c4nn(Cc5cccc(F)c5)c5cc(Cl)ccc45)nc(N)c32)nc1CC(C)(C)C(=O)O (centres unmarked) [Example 176B, 3-(2-{4-amino-2-[6-chloro-1-(3-fluorobenzyl)-1H-indazol-3-yl]-5-methyl-6-oxo-6,7-dihydro-5H-pyrrolo[2,3-d]pyrimidin-5-yl}-5-methyl-1,3-oxazol-4-yl)-2,2-dimethyl-propanoic acid] | 118% | 1470 nM | 0.13 nM | 
12 | CC(C)(Cc1coc(C2(C)C(=O)Nc3nc(-c4nn(CC5CCCCO5)c5ccccc45)nc(N)c32)n1)C(=O)O (single isomer, unassigned) [Example 230AA, 3-{2-[4-amino-5-methyl-6-oxo-2-{1-[tetrahydro-2H-pyran-2-ylmethyl]-1H-indazol-3-yl}-6,7-dihydro-5H-pyrrolo[2,3-d]pyrimidin-5-yl]-1,3-oxazol-4-yl}-2,2-dimethyl-propanoic acid] |  | 821 nM | 0.185 nM | 
13 | CC(C)(Cc1coc(C2(C)C(=O)Nc3nc(-c4nn(Cc5cccc(F)c5)c5ccccc45)nc(N)c32)n1)C(=O)O (centres unmarked) [Example 223A, 3-(2-{4-amino-2-[1-(3-fluoro-benzyl)-1H-indazol-3-yl]-5-methyl-6-oxo-6,7-dihydro-5H-pyrrolo[2,3-d]pyrimidin-5-yl}-1,3-oxazol-4-yl)-2,2-dimethyl-propanoic acid] | 119% | 210 nM | 0.05 nM | 
14 | CC(C)(NC(=O)CCc1ccc([C@]2(C)C(=O)Nc3nc(-c4nn(Cc5ccccc5F)c5ncccc45)nc(N)c32)cc1)C(=O)O [Example 101B, (S)-2-(3-(4-{4-amino-2-[1-(2-fluorobenzyl)-1H-pyrazolo[3,4-b]pyridin-3-yl]-5-methyl-6-oxo-6,7-dihydro-5H-pyrrolo[2,3-d]pyrimidin-5-yl}phenyl)propanamido)-2-methylpropanoic acid] | 111% | 2340 nM | 0.026 nM | 
15 | CC(C)(Cc1coc(C2(C)C(=O)Nc3nc(-c4nn(CC5CCCCC5)c5cc(Cl)ccc45)nc(N)c32)n1)C(=O)O (centres unmarked) [Example 159A, 3-(2-{4-amino-2-[6-chloro-1-(cyclohexylmethyl)-1H-indazol-3-yl]-5-methyl-6-oxo-6,7-dihydro-5H-pyrrolo[2,3-d]pyrimidin-5-yl}-1,3-oxazol-4-yl)-2,2-dimethyl-propanoic acid] | 113% | 221 nM | 0.125 nM | 
16 | CC(C)(CCc1csc(C2(C)C(=O)Nc3nc(-c4nn(Cc5cccc(F)c5)c5cc(F)ccc45)nc(N)c32)n1)C(=O)O (centres unmarked) [Example 196A, 4-(2-{4-amino-2-[6-fluoro-1-(3-fluorobenzyl)-1H-indazol-3-yl]-5-methyl-6-oxo-6,7-dihydro-5H-pyrrolo[2,3-d]pyrimidin-5-yl}-1,3-thiazol-4-yl)-2,2-dimethyl-butanoic acid] | 90.3% | 54 nM | 0.468 nM | 
17 | CCCCn1nc(-c2nc(N)c3c(n2)NC(=O)C3(C)c2ccc(CC(C)(C)C(=O)O)cc2)c2ccc(Cl)cc21 (centres unmarked) [Example 37B, 3-{4-[4-amino-2-(1-butyl-6-chloro-1H-indazol-3-yl)-5-methyl-6-oxo-6,7-dihydro-5H-pyrrolo[2,3-d]pyrimidin-5-yl]phenyl}-2,2-dimethylpropanoic acid] | 96% | 762 nM | 0.484 nM | 
18 | CCCCn1nc(-c2nc(N)c3c(n2)NC(=O)[C@@]3(C)c2ccc(CCC(=O)O)cc2)c2ccc(C)nc21 [Example 111B, (S)-3-{4-{4-amino-2-(1-butyl-6-methyl-1H-pyrazolo[3,4-b]pyridin-3-yl)-5-methyl-6-oxo-6,7-dihydro-5H-pyrrolo[2,3-d]pyrimidin-5-yl}phenyl}propanoic acid] | 86% | 9250 nM | 1.11 nM | 
19 | CCCCCn1nc(-c2nc(N)c3c(n2)NC(=O)[C@@]3(C)c2ccc(CCC(=O)O)cc2)c2ccc(Cl)cc21 [Example 43B, (S)-3-{4-[4-amino-2-(6-chloro-1-pentyl-1H-indazol-3-yl)-5-methyl-6-oxo-6,7-dihydro-5H-pyrrolo[2,3-d]pyrimidin-5-yl]phenyl}propanoic acid] | 105% | 142 nM | 0.096 nM | 
20 | CC1(c2cc(-c3nn[nH]n3)ccn2)C(=O)Nc2nc(-c3nn(Cc4ccccc4F)c4cc(Cl)ccc34)nc(N)c21 (centres unmarked) [Example 243A, 5-[4-(2H-tetrazol-5-yl)pyridin-2-yl]-4-amino-2-[6-chloro-1-(2-fluorobenzyl)-1H-indazol-3-yl]-5-methyl-5,7-dihydro-6H-pyrrolo[2,3-d] pyrimidin-6-one] | 101% | 3600 nM | 0.062 nM | 
21 | CC1(c2ccc(C(=O)O)cn2)C(=O)Nc2nc(-c3nn(Cc4ccccc4F)c4cc(Cl)ccc34)nc(N)c21 (centres unmarked) [Example 254A, 6-{4-Amino-2-[6-chloro-1-(2-fluorobenzyl)-1H-indazol-3-yl]-5-methyl-6-oxo-6,7-dihydro-5H-pyrrolo[2,3-d]pyrimidin-5-yl}pyridine-3-carboxylic acid] | 123% | 1010 nM | 0.199 nM | 

From patent publication US10030027B2, “Soluble guanylate cyclase stimulators” (MERCK SHARP & DOHME CORP., priority 2015, dated 2018)
